We go through two compounds from the NIST ThermoML archive (doi:10.1016/j.fluid.2006.01.024).

The conditions of series [1]: 298.2 K; 101.33 kPa; Liquid; Vibrating tube method.
Series [2] can be described thus: Boiling temperature at pressure P. To be noted: 101.33 kPa; Liquid.
The nature of series [3]: refractive index (Na D-line) (dimensionless). To be noted: 298.2 K; 101.33 kPa; Liquid; Abbe refractometer.

The structures appear in SMILES notation. ± gives the expanded uncertainty stated by the source.

The term mass density denotes the mass of a sample divided by its volume. As usually defined, the refractive index is a measure of how strongly the sample bends light. As for `CCO` [ethanol], the mass density in series [1] was found to be 785.2 ± 0.2 kg/m3. For the same compound, the “Boiling temperature at pressure P” value in series [2] worked out at 78.00 ± 0.4 °C. Further, the refractive index in series [3] turned out to be 1.3595 ± 0.0015.
The like results for `C1CC[C@H]2CCCC[C@@H]2C1` [trans-decahydronaphthalene] were, in that order, 868.25 ± 0.15 kg/m3, 187.20 ± 0.4 °C and 1.4682 ± 0.0016.
